Data set [1] relates to XMRV collected from 22Rv1 prostate cancer cells. The experiment in a line: Anti-XMRV cytoprotection assay in PG-4 cells (XTT). It is filed as cell-based, xenotropic murine retrovirus (XMRV). On the procedure: The test materials were evaluated in PG-4 cells against XMRV collected from the cell-free supernatant of 22Rv1 prostate cancer cells using a complete dose response curve. The experimental details and results are discussed below.
Test materials (CMX157 K^+ salt and Tenofovir) were solubilized at 40 mM and 10 mM in water, respectively, and stored at −20° C. Test materials were evaluated using a 1 μM high test concentration and serially diluted in half-log increments for the in vitro antiviral assay (SOW104-11-01). A second assay was performed (SOW104-11-02) using a 1 μM high test concentration for CMX157, but an increased high test concentration of 100 μM for tenofovir. Ribavirin was purchased from Sigma and used as a positive control compound.
(§1) PG-cells (ATCC# CRL-2032; feline astrocytes) were passaged in T-75 flasks in McCoy's 5A medium supplemented with 10% heat inactivated fetal bovine serum, 2 mmol/L L-glutamine, 100 U/ml penicillin and 100 μg/ml streptomycin prior to use in the antiviral assay. On the day preceding the assay, cells were split 1:2 to assure they were in an exponential growth phase at the time of infection. Total cell and viability quantification were performed using a hemocytometer and Trypan Blue dye exclusion. Cell viability was to be greater than 95% for the cells to be utilized in the assay. The cells were resuspended at 5×10^4 cells per ml (SOW104-11-01) or 1×10^5 cells per mL (SOW104-11-02) in tissue culture medium and added to flat bottom microtiter plates in a volume of 100 μI for overnight incubation at 37° C./5% CO2.
(§2) Serial half-log dilutions were performed. Media was removed from the cell monolayer and 100 μL of 2× concentrations of compound-containing media (DMEM supplemented with 2% FBS, 2 mmol/L L-glutamine, 100 U/ml penicillin and 100 μg/ml streptomycin for SOW104-11-01 or PG-4 cell culture medium for SOW104-11-02) was transferred to the 96-well microtiter plate.
The XMRV virus was collected from the cell-free supernatant of 22Rv1 human prostate cancer cells (ATCC# CRL-2505). A pretitered aliquot of virus was removed from the freezer (−80° C.) and allowed to thaw in a biological safety cabinet. The virus was diluted into 2% FBS assay medium such that the amount of virus added to each well in a volume of 100 μl is the amount determined to yield 85 to 95% cell killing at six days post infection (based on optical density values) for SOW104-11-01. PG-4 cell culture medium was used to dilute virus in a volume of 100 μl is the amount determined to yield 85 to 95% cell killing at six days post infection for SOW104-11-02.
(§3) Inhibition of virus induced cytopathic effects (CPE) was quantified by measuring the reduction of the tetrazolium dye XTT (2,3-bis(2-methoxy-4-nitro-5-sulfophenyl)-5-[(phenylamino)carbonyl]-2H-tetrazoIium hydroxide). XTT in metabolically active cells is metabolized by the mitochondrial enzyme NADPH oxidase to a soluble formazan product. XTT solution was prepared daily as a stock of 1 mg/mL in PBS. Phenazine methosulfate (PMS) solution was prepared at 0.15 mg/mL in PBS and stored in the dark at −20° C. XTT/PMS stock was prepared immediately before use by adding 40 μL of PMS per mL of XTT solution. 50 μL of XTT/PMS was added to each well of the plate and the plate incubated for 4 h at 37° C. The 4 h incubation has been empirically determined to be within the linear response range for XTT dye reduction with the indicated numbers of cells for each assay. Adhesive plate sealers were used in place of the lids, the sealed plate was inverted several times to mix the soluble formazan product and the plate was read at 450 nm (650 nm reference wavelength) with a Molecular Devices SpectraMax Plus 384 96 well plate format spectrophotometer.
Raw data was collected from the Softmax Pro 4.6 software and imported into a Microsoft Excel XLfit4 spreadsheet to analyze (four parameter curve fit analysis) and graph the data. […] The EC50, EC90, TC50 and TC90 are expressed means±standard deviation.
(In general: Tetrazolium assays rely on reduction of a dye to a coloured formazan, in cell work by metabolically active cells.)

The nature of data set [2]: Cytotoxicity in LNCaP cells. It counts as cell-based. The following applies: human. On the procedure: (§4) Specifically, the anti-XMRV activity assay was completed in LNCaP cells (6 day assay) according to the methods described in PLoS ONE, volume 5 (4), April 2010, e9948, pages 1-7.
(§5) The cytotoxicity of CMX157 in LNCaP cells was also tested.

Another data set deals with XMRV. The experiment in a line: Anti-XMRV activity assay in LNCaP cells (6 day assay). It is filed as cell-based.
Text: as §4

A further data set relates to PG-4 cells. Kind of data set: Cytotoxicity in PG-4 cells (XTT, TC50). It is filed as cell-based, feline. On the procedure: as §1, §2, §3
(§6) Raw data was collected from the Softmax Pro 4.6 software and imported into a Microsoft Excel XLfit4 spreadsheet to analyze (four parameter curve fit analysis) and graph the data. Using Microsoft Excel, EC50 and EC90 (50% and 90% inhibition of virus replication), TC50 and TC90 (50% and 90% reduction in cell viability) and a therapeutic index (TI, TC50/EC50 and TC90/EC90) are provided. The EC50, EC90, TC50 and TC90 are expressed means±standard deviation. The significant figure is three digits. Raw data for both antiviral activity and toxicity with a graphic representation of the data are provided in a printout summarizing the individual compound activity.

Another data set concerns LNCaP cells. The experiment in a line: Cytotoxicity in LNCaP cells. It counts as cell-based. The following applies: LNCaP cells. On the procedure: as §4, §5
The format of data set [3] is physicochemical. The conditions noted are these: general statement, see Example 2. On the procedure: Stability testing was performed for CMX157 and its salts to investigate the quality of the compound over time under various environments. Accelerated conditions were established using an Isotemp Vacuum Oven set at either 40° C. or 60° C. If high humidity was needed, a saturated solution of sodium chloride created an air state containing about 75% humidity.
For determining the amount of CMX157 present in the samples within the stability study, a reference standard of a known purity was used. […] For analysis, 40 mg of samples and standards are dissolved in 100.0 mL diluent (80 H2O: 20 Methanol: 2 NH4OH). Separation of the drug substance and impurities was achieved using a mobile phase gradient (Table 1) on a Shimadzu A20 HPLC with a Phenomenex Synergi Polar RP 4μ 150×3 mm column. By comparing the areas for the samples at wavelength of 259 nm (kmax) to that of the reference standard, the percentage of CMX157 was determined.

Data set [4] can be described thus: Cytotoxicity in PG-4 cells (XTT, TC50). It counts as cell-based, feline. The conditions noted are these: cat. On the procedure: as §1, §2, §3, §6
The mark [5] stands for this setting: unidentified retrovirus, 22Rv1, in Mus musculus, read-out: PG-4/XMRV EC50, assay SOW104-11-01: 5×10^4 cells per ml, DMEM 2% FBS.
[6] abbreviates: unidentified retrovirus, 22Rv1, in Mus musculus, read-out: PG-4/XMRV EC50, assay SOW104-11-02: 1×10^5 cells per mL, PG-4 cell culture medium.
[7] abbreviates: unidentified retrovirus, 22Rv1, in Mus musculus, read-out: PG-4/XMRV EC50, third determination listed in Table 3, run not stated.
The mark [8] stands for this setting: third determination listed in Table 3, run not given.
Where [9] appears, read: LNCaP cells, read-out: Cytotoxicity (IC50) LNCaP cells.

Where a name gives a salt, the structure may show the parent alone. Read-outs that look alike come from different tables or passages of the source. Some results are limits rather than exact numbers.

The results in this text go back to patent publication US9006218B2, “Nucleoside phosphonate salts” (Chimerix Inc., priority 2010, dated 2015).

One may read the IC50 as the concentration that gives 50% inhibition. As usually defined, the EC90 is the point of the concentration-response curve where the effect stands at 90%. Low values mean an effect from little substance, high ones a need for much substance.

Turning to `Cc1cn([C@H]2C[C@H](N=[N+]=[N-])[C@@H](CO)O2)c(=O)[nH]c1=O` [AZT, 3′-azido-2′,3′-dideoxythymidine], the EC50 in data set [1] (setting [5]) was 800 nM; in data set [1] (setting [6]), 70 nM; in data set [1] (setting [7]) it was 600 nM; with XMRV (144 h), 8.1 ± 11 nM. Further, the IC50 in data set [2] is > 100000 nM. Besides, the EC90 in the data set with XMRV (144 h) is 55 ± 51 nM.
With `C[C@H](Cn1cnc2c(N)ncnc21)OCP(=O)(O)O` [Tenofovir, (R)-9-(2-phosphonylmethoxypropyl)adenine], the EC50 was > 1000 nM in data set [1] (assay SOW104-11-01: 5×10^4 cells per ml, DMEM 2% FBS, read-out: PG-4/XMRV EC50); 2400 nM in data set [1] (assay SOW104-11-02: 1×10^5 cells per mL, PG-4 cell culture medium, read-out: PG-4/XMRV EC50); 2600 nM in data set [1] (third determination listed in Table 3, run not given, read-out: PG-4/XMRV EC50); 4500 ± 3800 nM in the data set on XMRV. The results for the “Therapeutic Index (TC50/EC50)” value in data set [1] (assay SOW104-11-02) and in data set [1] (setting [8]) were >41.5 and >38.6, respectively. For the same molecule, the CC50 with PG-4 cells (assay SOW104-11-01) was > 1000 nM; in the data set with PG-4 cells (assay SOW104-11-02), > 100000 nM; in the data set with PG-4 cells (setting [8]), > 100000 nM. Also, the IC50 with LNCaP cells was > 100000 nM. In the data set on XMRV, this molecule gave an EC90 of 17400 ± 9000 nM.
`CC(C)OC(=O)OCOP(=O)(CO[C@H](C)Cn1cnc2c(N)ncnc21)OCOC(=O)OC(C)C` [Tenofovir disoproxil fumarate, 2,4,6,8-Tetraoxa-5-phosphanonanedioic acid, 5-[[(1R)-2-(6-amino-9H-purin-9-yl)-1-methylethoxy]methyl]-, bis(1-methylethyl)ester, 5-oxide, (2E)-2-butenedioate (1:1)]: the IC50 in data set [2] is 87400 nM. In the data set on XMRV (144 h), the EC50 came to 29 ± 26 nM and the EC90 worked out at 210 ± 150 nM.
As to `Cc1nnc(C(=O)NC(C)(C)c2nc(C(=O)NCc3ccc(F)cc3)c(O)c(=O)n2C)o1` [Raltegravir], the IC50 in data set [2] (setting [9]) was > 100000 nM. Moreover, in the data set with XMRV (144 h), the EC50 is 0.54 ± 0.57 nM and it took 3.2 ± 2.9 nM to reach the 90% level (EC90).
Regarding `CCCCCCCCCCCCCCCCOCCCOP(=O)(O)CO[C@H](C)Cn1cnc2c(N)ncnc21` [CMX157, 3-(hexadecyloxy)propyl hydrogen ((R)-1-(6-amino-9H-purin 9-yl)propan-2-yloxy)methylphosphonate], the “stability in words, free acid versus salts” value in data set [3] is given as “relatively unstable”. In data set [1] (XMRV in vitro, versus AZT), the “EC50 lower than AZT” value is recorded as “approximately 20 fold”. Moreover, the “EC50 lower than TFV” value in data set [1] (XMRV in vitro, versus TFV) is ~800 fold. For the same molecule, the “Therapeutic Index (TC50/EC50)” value is 10.0 in data set [1] (assay SOW104-11-01), >333.0 in data set [1] (assay SOW104-11-02) and 97.8 in data set [1] (setting [8]). Also, the EC50 in data set [1] (setting [5]) worked out at 40 nM; in data set [1] (setting [6]), 3 nM; in data set [1] (setting [7]), 60 nM; in the data set on XMRV (144 h) it was 3.1 ± 2.1 nM. In addition, the CC50 in data set [4] (assay SOW104-11-01, read-out: PG-4 TC50) was 400 nM; in data set [4] (assay SOW104-11-02, read-out: PG-4 TC50), > 1000 nM; in data set [4] (third determination listed in Table 3, run not given, read-out: PG-4 TC50) it was 5900 nM. Moreover, in data set [2] (setting [9]), the IC50 is > 100000 nM. Also, it took 37 ± 16 nM to reach the 90% level in the data set with XMRV (144 h) (EC90).
Turning to `NC(=O)c1ncn([C@@H]2O[C@H](CO)[C@@H](O)[C@H]2O)n1` [Ribavirin, 1-β-D-ribofuranosyl-1,2,4-triazole-3-carboxamide], the “Therapeutic Index (TC50/EC50)” value in data set [1] (assay SOW104-11-01) is given as 6.5. In addition, the EC50 in data set [1] (unidentified retrovirus, 22Rv1, in Mus musculus, read-out: PG-4/XMRV EC50, Ribavirin in μg/mL, control of SOW104-11-01) is 10.1 µg/mL. Further, the “PG-4 TC50” value in the data set on PG-4 cells (cat) was determined as 65.2 µg/mL.
On to `CC(C)(C)NC(=O)[C@@H]1CN(Cc2cccnc2)CCN1C[C@@H](O)C[C@@H](Cc1ccccc1)C(=O)N[C@H]1c2ccccc2C[C@H]1O` [IDV (Indinavir)], for which the “Therapeutic Index (TC50/EC50)” value in data set [1] (assay SOW104-11-02) came out at 2.7. In addition, the EC50 in data set [1] (setting [6]) was found to be 800 nM. The molecule also showed a CC50 in data set [4] (PG-4 TC50) of 2200 nM.
